According to PMC5668658 (Biochemistry and Biophysics Reports, 2015):

Experiments:
Type in all cases: cell-based
[1] = target: T1, organic cation transporter 1 (OCT1/SLC22A1) (Homo sapiens, UniProt O15245); assay: inhibition of OCT1-specific [3H]atenolol uptake at […] in MDCKII cells
T1 sequence (O15245 1-554): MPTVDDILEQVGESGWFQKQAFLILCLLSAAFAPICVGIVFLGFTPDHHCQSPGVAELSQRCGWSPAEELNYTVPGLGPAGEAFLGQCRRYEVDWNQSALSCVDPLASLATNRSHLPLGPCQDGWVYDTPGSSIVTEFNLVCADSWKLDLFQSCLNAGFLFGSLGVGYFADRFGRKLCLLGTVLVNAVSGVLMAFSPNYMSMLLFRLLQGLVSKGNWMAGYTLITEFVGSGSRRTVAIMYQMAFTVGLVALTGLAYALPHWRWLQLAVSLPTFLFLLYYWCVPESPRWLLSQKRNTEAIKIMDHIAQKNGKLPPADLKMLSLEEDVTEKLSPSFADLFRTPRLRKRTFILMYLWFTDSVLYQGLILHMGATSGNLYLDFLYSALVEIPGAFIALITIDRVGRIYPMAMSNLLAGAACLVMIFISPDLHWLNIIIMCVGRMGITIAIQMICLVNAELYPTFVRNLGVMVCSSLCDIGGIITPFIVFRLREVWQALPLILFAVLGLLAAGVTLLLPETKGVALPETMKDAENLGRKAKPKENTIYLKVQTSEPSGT

[2] = target: T1, organic cation transporter 1 (OCT1/SLC22A1); assay: inhibition of OCT1-specific [3H]atenolol uptake in MDCKII cells stably expressing OCT1; MPP+ uptake also inhibited
[3] = target: T1, organic cation transporter 1 (OCT1/SLC22A1); assay: inhibition of OCT1-specific [3H]atenolol uptake in MDCKII cells stably expressing OCT1

SMILES | inhibition of OCT1-specific [3H]atenolol uptake at 100 μM in MDCKII cells [1] | further results
O=c1cc(-c2ccccc2)oc2cc(O)c(O)c(O)c12 [Baicalein] | exhibited the most potent inhibitory activity | 
O=c1c(O)c(-c2ccc(O)c(O)c2)oc2cc(O)cc(O)c12 [quercetin] |  | Ki [2]: 48 µM
O=C(CCc1ccc(O)cc1)c1c(O)cc(O)cc1O [phloretin] |  | Ki [3]: 38 µM
O=C(CCc1ccc(O)cc1)c1c(O)cc(O)cc1O[C@@H]1O[C@H](CO)[C@@H](O)[C@H](O)[C@H]1O [Phlorizin] | also exhibited inhibitory activities comparable to those of their aglycones | 
